{
  "source": "patent US8853274B1",
  "about": "“Compositions and methods for targeting glioblastomas cells” (Vanderbilt University, priority 2011, dated 2014)",
  "key": {"cleaved Notch1": {"system": "cleaved Notch1", "experiment": "IHC staining for cleaved Notch1 in intracranial tumors", "format": "in vivo, Mice", "conditions": "oral 30 mg/kg/day, 7 days", "protocol": "(§1) (A, B) T4302 CD133+ cells were treated with 100 nM GSI±FTI for 48 hours and lysed in RIPA buffer. Mice bearing intracranial T4302 tumors were orally treated with 30 mg/kg/day GSI once a day (q.d.)±100 mg/kg/day FTI twice a day (b.i.d.) for 7 days. Brains were resected and homogenized in RIPA buffer. All lysates were blotted with an antibody specific to prelamin A. (B) Additional brains were fixed and resected for IHC staining for cleaved Notch1. (C) T4302 CD133+ cells were infected with lentivirus expressing firefly luciferase and selected with puromycin for two days. Athymic nude mice were intracranially implanted with 5,000 cells, maintained for 10 days, and treated with GSI±FTI for 20 days as described above. In a separated experiment, animals were treated by the same protocol, except they were given 2 doses of 4 Gy X-ray irradiation on day 11 and day 12, 4 hours after drug administration. These mice were on drugs for 30 days. The median survival was calculated by the GraphPad Prism 5 software. (D) Animals in the unirradiated experiment were tracked for their tumor progression by bioluminescence imaging. The Y axis is set in a log scale. (E,F) The survival curves of these two experiments are shown."}, "[1]": {"system": "intracranial T4302 tumors", "experiment": "Orthotopic GBM model, survival and tumor burden", "format": "in vivo, Athymic nude mice", "protocol": "as §1\nMice were first anesthetized using an isoflurane inhalation system and maintained on the nose cone during the procedure. 5,000 CD 133+ GSC cells suspended in 10 μl PBS were implanted into the right cerebrum with 30 gauge needles. Animals were maintained for 10 days to allow tumor establishment. Before treatment, any mouse showing distress or neurological signs (e.g. lethargy, hemiparesis, ataxia, seizures) would be euthanized. The remaining mice will be randomized to treatment groups just prior to treatment. […]\nMice were weighted and visually inspected daily once treatments begin. Tumor development was monitored by bioluminescence imaging every week. […] The primary readout of the in vivo tests is the median survival calculated by the Kaplan-Meier estimator using the GraphPad Prism5 software. Drug efficacy was also be assessed by tumor sizes estimated by bioluminescence imaging."}, "GBM43": {"system": "GBM43", "experiment": "Growth inhibition at day 5, spheroid GBM culture", "format": "cell-based, human", "conditions": "effects diminished after radiation", "protocol": "(§2) (A) Known genetic features of selected GBM samples. WT: wild type; Amp: amplification; vIII: EGFRvIII; ND: not determined. (B) Spheroid GBM cultures were derived from freshly collected subcutaneous tumors and cultured for 2 weeks in stem cell media to enrich stem cell-like cancer cells. SF7225 was maintained as a primary spheroid culture. Growth inhibition at day 5 after treatment was determined as described in FIG. 5. *: p<0.01 by Student's t-test and growth inhibition ≧30% vs. the corresponding vehicle-treated groups. #: p<0.01 and >30% growth inhibition vs. the radiation only groups.\n(§3) Work is now extended to a set of subcutaneous GBM xenografts (GBM) established by Dr. Jann Sarkaria and colleagues at Mayo Clinic. These samples are known to have mutational status of EGFR, p53 and PTEN and different radiosensitivity (FIG. 8A) (69-71). Because the cancer stem cell identity of CD133+ of the Mayo Clinic samples has not been validated by functional assays, the present inventor used the neurosphere culture that is widely utilized as a surrogate of GSCs for its ability to enrich GSC-like population (72, 73). Tumor response to GSI, FTI and/or radiation was determined as growth inhibition on day 5 after treatment, with a greater than 30% cell number reduction was defined as positive response mimicking the RECIST criteria (FIG. 8B). […] Therefore, the present inventor will continuously expand the GBM panel and determine the genomic features of all samples with focus on prevalent GBM-associated aberrations. On the basis of this molecularly characterized tumor panel, the present inventor will start to explore the potential biomarkers that may predict tumor response to the combination therapy of radiation, GSI and FTI by experiments described in herein."}, "GBM 44": {"system": "GBM 44", "experiment": "Growth inhibition at day 5, spheroid GBM culture", "format": "cell-based, human", "protocol": "as §2, §3"}},
  "data": [
    {"smiles": "CC(C)(C(=O)NCC(F)(F)C(F)(F)F)C(=O)N[C@@H]1C(=O)Nc2ccccc2-c2ccccc21", "note": "[RO4929097]", "values": [
      {"measurement": "levels of cleaved Notch1 in intracranial tumors (IHC)", "setting": "cleaved Notch1", "result": "decreased the levels of cleaved Notch1"},
      {"measurement": "survival benefit, in words", "setting": "[1]; unirradiated, 20 days oral treatment", "result": "did not produce significant benefits"},
      {"measurement": "survival benefit, in words", "setting": "[1]; with 2 doses of 4 Gy local X-ray, 30 days oral treatment", "result": "some modest effects"},
      {"measurement": "mice free of tumor burden / sustained control of orthotopic GBM", "setting": "[1]; with radiation, ~day 80", "result": "1 out of 8"},
      {"measurement": "tumor response (growth inhibition day 5), in words", "setting": "GBM43", "result": "moderate response"},
      {"measurement": "growth inhibition on day 5", "setting": "GBM 44; 0 Gy", "result": "48±3.2", "unit": "%"},
      {"measurement": "growth inhibition on day 5", "setting": "GBM 44; 3 Gy", "result": "65±3.3", "unit": "%"}
    ]}
  ]
}
